Data as given in ChEMBL document CHEMBL2331553, “Discovery of N-[[1-[2-(tert-butylcarbamoylamino)ethyl]-4-(hydroxymethyl)-4-piperidyl]methyl]-3,5-dichloro-benzamide as a selective T-type calcium channel (Cav3.2) inhibitor” (Bioorg Med Chem Lett, 2013).
Values after ≈ are worked out from the molar mass of the structure shown.

How the values were obtained:
Cytochrome P450 2D6 = Cytochrome P450 2D6 (Homo sapiens, UniProt P10635); assay: Inhibition of human recombinant CYP2D6-mediated 7-methoxy-4(aminomethyl)-coumarine degradation; type: ADME
Cytochrome P450 2D6, sequence (P10635 whole entry): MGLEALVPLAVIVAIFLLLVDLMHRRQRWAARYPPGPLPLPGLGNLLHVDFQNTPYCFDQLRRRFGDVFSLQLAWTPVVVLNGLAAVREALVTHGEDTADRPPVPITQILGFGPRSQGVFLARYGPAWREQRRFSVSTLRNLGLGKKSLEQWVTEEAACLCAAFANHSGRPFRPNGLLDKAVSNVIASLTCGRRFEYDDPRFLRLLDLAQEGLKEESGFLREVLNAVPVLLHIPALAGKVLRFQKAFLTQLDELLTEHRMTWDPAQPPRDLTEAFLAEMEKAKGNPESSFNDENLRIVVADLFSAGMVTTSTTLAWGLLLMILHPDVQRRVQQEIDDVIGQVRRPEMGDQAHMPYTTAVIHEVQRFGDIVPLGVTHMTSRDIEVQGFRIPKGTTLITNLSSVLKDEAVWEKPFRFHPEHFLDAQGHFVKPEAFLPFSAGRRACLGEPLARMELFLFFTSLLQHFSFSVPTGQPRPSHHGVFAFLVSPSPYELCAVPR

[1] = target: Voltage-gated inwardly rectifying potassium channel KCNH2 (Homo sapiens, UniProt Q12809); assay: Inhibition of human ERG expressed in CHO cells by IONWORKS assay; type: cell-based
Voltage-gated inwardly rectifying potassium channel KCNH2, sequence (Q12809 whole entry): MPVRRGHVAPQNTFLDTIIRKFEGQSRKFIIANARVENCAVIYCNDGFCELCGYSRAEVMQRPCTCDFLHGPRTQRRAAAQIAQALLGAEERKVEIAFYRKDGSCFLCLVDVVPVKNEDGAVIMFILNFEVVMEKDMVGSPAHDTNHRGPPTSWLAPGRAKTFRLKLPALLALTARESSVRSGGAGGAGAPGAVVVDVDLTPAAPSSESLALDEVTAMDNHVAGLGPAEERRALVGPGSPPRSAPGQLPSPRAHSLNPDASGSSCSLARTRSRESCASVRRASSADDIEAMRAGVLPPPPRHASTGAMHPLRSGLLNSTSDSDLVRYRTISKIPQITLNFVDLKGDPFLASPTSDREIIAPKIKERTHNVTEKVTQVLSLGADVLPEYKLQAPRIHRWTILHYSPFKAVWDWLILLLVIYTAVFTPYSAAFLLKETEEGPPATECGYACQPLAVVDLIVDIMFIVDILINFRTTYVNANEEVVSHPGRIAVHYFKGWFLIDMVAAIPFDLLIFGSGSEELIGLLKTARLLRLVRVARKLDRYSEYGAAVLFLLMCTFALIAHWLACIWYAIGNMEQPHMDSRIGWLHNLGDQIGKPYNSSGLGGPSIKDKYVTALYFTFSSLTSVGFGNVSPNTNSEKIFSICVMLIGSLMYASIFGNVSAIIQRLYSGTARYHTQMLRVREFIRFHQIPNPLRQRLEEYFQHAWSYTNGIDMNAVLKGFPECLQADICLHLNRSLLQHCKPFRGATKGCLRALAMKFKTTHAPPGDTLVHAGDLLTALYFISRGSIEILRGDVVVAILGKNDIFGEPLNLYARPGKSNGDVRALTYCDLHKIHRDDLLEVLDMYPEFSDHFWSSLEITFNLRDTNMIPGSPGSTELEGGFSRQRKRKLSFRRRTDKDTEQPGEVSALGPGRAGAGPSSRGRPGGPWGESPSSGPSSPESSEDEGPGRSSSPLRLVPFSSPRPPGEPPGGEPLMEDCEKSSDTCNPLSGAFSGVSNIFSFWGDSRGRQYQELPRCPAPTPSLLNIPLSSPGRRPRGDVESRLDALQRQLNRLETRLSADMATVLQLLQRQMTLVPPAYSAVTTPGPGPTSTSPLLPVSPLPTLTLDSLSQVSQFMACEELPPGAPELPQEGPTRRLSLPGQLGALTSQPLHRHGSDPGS

[2] = Intrinsic clearance in human liver microsomes at 1 mg/ml after 45 mins; type: ADME, Microsome; conditions: read-out: CLH
Liver microsomes = assay: Drug metabolism in human liver microsomes assessed as glutathione-adduct reactive metabolite formation at 1 mg/ml after 30 mins; type: ADME, Microsome; conditions: 0.5 h
[3] = target: T1, Voltage-dependent T-type calcium channel subunit alpha-1H (Homo sapiens, UniProt O95180); assay: Inhibition of human T-type calcium channel Cav3.2 expressed in T-Rex293 cells by whole cell patch clamp assay; type: cell-based, HEK293
T1 sequence (O95180 whole entry, the tested form may be a part): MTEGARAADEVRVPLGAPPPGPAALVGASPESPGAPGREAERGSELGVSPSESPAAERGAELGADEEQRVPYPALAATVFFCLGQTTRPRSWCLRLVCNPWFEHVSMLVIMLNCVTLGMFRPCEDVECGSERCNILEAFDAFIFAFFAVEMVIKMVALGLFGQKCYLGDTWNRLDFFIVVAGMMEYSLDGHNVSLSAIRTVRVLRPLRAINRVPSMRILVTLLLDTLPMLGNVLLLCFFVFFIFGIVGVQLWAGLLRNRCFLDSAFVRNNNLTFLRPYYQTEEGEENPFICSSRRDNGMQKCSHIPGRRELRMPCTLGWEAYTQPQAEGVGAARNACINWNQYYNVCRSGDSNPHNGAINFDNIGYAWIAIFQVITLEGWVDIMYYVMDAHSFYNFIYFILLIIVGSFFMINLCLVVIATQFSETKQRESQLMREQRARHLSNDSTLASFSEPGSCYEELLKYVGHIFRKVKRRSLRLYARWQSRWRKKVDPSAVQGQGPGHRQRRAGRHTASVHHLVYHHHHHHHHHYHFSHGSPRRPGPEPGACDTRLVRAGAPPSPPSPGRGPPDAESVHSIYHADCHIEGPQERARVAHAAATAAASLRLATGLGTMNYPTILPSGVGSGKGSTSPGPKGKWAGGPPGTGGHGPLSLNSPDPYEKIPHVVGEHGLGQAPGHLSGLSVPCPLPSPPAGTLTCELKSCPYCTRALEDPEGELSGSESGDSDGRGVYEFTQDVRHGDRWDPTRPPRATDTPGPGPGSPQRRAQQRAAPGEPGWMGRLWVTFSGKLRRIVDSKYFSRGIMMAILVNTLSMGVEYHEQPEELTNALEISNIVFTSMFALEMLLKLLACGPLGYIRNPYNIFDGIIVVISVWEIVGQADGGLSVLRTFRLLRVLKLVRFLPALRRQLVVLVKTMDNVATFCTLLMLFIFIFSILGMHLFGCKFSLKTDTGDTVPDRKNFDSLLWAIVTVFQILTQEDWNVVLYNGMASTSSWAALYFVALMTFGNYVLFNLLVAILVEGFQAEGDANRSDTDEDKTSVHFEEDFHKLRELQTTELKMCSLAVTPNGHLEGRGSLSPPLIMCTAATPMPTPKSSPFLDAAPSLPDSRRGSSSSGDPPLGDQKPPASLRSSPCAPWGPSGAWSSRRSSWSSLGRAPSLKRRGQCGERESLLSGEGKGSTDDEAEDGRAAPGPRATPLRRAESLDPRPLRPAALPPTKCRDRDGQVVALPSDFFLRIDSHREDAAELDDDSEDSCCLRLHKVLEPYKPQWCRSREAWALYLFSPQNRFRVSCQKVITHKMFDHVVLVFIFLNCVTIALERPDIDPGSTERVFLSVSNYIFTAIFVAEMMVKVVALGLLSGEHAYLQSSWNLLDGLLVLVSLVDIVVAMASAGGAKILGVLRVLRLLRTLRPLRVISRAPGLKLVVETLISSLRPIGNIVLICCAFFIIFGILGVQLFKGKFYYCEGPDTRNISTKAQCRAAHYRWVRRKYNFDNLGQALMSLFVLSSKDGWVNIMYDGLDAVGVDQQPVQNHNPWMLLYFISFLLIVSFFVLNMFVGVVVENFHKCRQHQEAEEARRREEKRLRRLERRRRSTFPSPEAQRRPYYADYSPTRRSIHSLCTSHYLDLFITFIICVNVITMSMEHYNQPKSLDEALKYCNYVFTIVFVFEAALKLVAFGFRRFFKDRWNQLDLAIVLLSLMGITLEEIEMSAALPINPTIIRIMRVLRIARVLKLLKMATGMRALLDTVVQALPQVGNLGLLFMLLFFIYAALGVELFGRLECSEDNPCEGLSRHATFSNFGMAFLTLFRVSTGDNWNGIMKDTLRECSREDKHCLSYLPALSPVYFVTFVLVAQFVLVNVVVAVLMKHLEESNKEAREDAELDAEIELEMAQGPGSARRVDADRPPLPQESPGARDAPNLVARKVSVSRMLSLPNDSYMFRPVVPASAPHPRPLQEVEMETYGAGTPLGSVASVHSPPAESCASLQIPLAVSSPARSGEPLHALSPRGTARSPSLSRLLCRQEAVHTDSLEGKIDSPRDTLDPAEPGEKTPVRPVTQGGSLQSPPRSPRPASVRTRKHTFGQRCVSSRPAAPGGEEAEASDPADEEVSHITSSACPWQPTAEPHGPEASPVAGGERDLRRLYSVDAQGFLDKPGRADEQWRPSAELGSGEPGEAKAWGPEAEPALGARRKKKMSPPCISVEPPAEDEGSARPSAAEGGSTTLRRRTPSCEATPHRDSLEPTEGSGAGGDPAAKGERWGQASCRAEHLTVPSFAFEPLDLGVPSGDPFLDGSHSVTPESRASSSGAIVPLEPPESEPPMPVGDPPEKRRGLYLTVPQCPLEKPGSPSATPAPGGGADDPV

[4] = Ratio of unbound concentration in brain to unbound concentration in plasma in Sprague-Dawley rat at 2 umol/kg/hr, iv administered as infusion measured after 4 hrs; type: ADME, organism-based; conditions: brain and plasma (unbound concentrations), read-out: K(p,uu,brain)
[5] = target: Voltage-gated potassium channel, IKs; KCNQ1(Kv7.1)/KCNE1(MinK) (Homo sapiens, UniProt P15382+P51787); assay: Inhibition of human IKs channel expressed in CHO cells by IONWORKS patch clamp assay; type: cell-based
Voltage-gated potassium channel, IKs; KCNQ1(Kv7.1)/KCNE1(MinK), sequence (P51787 whole entry): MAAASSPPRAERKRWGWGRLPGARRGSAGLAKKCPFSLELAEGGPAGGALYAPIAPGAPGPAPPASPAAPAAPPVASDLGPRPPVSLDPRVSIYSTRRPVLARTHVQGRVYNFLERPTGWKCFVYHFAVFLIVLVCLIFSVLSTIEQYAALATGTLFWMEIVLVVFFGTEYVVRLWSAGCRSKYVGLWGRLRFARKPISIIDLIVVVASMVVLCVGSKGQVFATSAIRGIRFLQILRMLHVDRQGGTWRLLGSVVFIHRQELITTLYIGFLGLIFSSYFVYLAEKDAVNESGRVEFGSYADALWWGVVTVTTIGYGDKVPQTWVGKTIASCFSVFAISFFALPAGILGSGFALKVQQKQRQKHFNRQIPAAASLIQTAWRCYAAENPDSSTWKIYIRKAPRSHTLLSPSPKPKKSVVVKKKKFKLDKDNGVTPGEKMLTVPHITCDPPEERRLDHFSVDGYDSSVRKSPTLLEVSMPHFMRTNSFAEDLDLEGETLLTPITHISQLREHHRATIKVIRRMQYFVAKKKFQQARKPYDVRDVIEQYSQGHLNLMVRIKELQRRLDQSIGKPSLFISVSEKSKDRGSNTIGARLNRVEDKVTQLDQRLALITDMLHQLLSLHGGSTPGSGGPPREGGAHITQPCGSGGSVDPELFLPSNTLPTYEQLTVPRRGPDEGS

[6] = target: Sodium channel protein type 5 subunit alpha (Homo sapiens, UniProt Q14524); assay: Inhibition of human Nav1.5 channel expressed in CHO cells by IONWORKS patch clamp assay; type: cell-based
[7] = Clearance in beagle dog at 1 mg/kg, iv; type: ADME, organism-based, Canis lupus familiaris; parameters: dose 1 mg/kg, route intravenous; conditions: in vivo
[8] = target: T2, A-type voltage-gated potassium channel KCND3 (Homo sapiens, UniProt Q9UK17); assay: Inhibition of human Kv4.3 channel expressed in CHO cells by IONWORKS patch clamp assay; type: cell-based
T2 sequence (Q9UK17 whole entry): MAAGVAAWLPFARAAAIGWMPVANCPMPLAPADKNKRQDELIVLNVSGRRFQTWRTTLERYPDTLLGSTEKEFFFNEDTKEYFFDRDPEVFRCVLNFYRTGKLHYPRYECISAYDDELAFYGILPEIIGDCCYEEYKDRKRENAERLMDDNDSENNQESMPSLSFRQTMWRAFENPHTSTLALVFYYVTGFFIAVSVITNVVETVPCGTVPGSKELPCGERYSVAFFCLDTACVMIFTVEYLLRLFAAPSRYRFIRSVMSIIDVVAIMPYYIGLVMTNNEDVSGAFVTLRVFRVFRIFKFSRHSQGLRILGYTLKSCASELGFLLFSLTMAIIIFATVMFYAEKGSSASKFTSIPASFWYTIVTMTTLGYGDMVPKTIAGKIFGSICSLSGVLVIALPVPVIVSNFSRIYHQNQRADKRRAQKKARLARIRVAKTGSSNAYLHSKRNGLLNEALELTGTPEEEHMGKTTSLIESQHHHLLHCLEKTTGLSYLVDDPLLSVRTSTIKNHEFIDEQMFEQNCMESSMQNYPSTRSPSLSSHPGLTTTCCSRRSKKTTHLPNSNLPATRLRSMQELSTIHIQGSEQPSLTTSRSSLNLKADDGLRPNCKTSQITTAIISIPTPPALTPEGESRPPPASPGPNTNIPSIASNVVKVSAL

[9] = Solubility of the compound at pH 7.4; type: physicochemical; conditions: buffer
[10] = target: T3, Potassium/sodium hyperpolarization-activated cyclic nucleotide-gated channel 4 (Homo sapiens, UniProt Q9Y3Q4); assay: Inhibition of human HCN4 channel expressed in CHO cells by IONWORKS patch clamp assay; type: cell-based
T3 sequence (Q9Y3Q4 whole entry): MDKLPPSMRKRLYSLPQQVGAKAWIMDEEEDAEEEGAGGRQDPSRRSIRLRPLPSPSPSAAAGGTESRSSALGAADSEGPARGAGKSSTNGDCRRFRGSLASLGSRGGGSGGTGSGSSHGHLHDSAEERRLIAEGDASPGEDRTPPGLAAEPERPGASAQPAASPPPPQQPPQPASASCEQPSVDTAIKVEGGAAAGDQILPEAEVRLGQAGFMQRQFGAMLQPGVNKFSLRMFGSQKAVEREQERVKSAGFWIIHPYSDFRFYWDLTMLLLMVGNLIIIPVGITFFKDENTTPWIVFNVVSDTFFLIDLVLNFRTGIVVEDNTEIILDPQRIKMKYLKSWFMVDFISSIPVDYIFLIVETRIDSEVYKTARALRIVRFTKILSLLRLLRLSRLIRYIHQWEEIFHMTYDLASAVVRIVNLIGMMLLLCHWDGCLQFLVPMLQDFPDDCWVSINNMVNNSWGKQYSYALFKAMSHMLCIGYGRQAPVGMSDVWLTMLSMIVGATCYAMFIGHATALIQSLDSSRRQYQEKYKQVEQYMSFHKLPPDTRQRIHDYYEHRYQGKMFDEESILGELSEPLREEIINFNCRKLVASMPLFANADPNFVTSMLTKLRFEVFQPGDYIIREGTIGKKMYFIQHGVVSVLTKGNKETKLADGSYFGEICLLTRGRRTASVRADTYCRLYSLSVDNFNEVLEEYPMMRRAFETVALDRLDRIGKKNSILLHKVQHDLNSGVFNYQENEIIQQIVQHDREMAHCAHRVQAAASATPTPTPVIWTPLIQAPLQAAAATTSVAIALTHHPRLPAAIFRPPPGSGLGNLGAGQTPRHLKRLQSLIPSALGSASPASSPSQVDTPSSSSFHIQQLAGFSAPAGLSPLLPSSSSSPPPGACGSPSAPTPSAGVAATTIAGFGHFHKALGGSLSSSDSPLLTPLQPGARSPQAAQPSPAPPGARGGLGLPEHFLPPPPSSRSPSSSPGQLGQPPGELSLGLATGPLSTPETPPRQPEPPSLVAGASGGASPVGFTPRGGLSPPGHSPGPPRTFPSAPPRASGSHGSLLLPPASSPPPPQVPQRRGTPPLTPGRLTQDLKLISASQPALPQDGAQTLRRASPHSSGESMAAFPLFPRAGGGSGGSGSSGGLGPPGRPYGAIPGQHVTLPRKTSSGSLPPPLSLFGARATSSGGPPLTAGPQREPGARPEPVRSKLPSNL

[11] = Oral bioavailability in beagle dog at 3 mg/kg; type: ADME, organism-based, Canis lupus familiaris; conditions: in vivo
Canis familiaris = assay: Cardioprotective activity in iv dosed beagle dog atrial fibrillation model assessed as reduction in heart rate administered as infusion for over 20 mins followed by 60-mins washout period by ECG analysis relative to control; type: functional, organism-based; conditions: Canis lupus familiaris
[12] = target: Voltage-dependent L-type calcium channel subunit alpha-1C (Homo sapiens, UniProt Q13936); assay: Inhibition of calcium channel Cav1.2 (unknown origin) expressed in CHO cells by IONWORKS patch clamp assay; type: cell-based
[13] = target: T1, Voltage-dependent T-type calcium channel subunit alpha-1H; assay: Inhibition of T-type calcium channel Cav3.2 (unknown origin) by IONWORKS assay

SMILES	IC50 (Cytochrome P450 2D6) [µM]	microsomal CLint [2] [µL/min/mg]	Drug metabolism (Liver microsomes)	IC50 [3] [µM]	IC50 [1] [µM]	other results
CC(C)(C)NCCN1CCN(CC(=O)NC23CC4CC(CC(C4)C2)C3)CC1				4.9		
COCC(=O)O[C@]1(CCN(C)CCCc2nc3ccccc3[nH]2)CCc2cc(F)ccc2[C@@H]1C(C)C [MIBEFRADIL]	0.063	56.5	Active			
CC(C)(C)NC(=O)CN1CCN(CC(=O)NC23CC4CC(CC(C4)C2)C3)CC1				1		Kp uu at 4 h [4]: 0.4
CC(C)(C)C(=O)NCCN1CCN(CC(=O)NC23CC4CC(CC(C4)C2)C3)CC1				3		
CC(C)(C)C(=O)NCCCN1CCN(CC(=O)NC23CC4CC(CC(C4)C2)C3)CC1				1.3		
CC(C)(C)CS(=O)(=O)NCCN1CCN(CC(=O)NC23CC4CC(CC(C4)C2)C3)CC1				0.9		Kp uu at 4 h [4]: 0.3
O=C(CN1CCN(CCC2CCOCC2)CC1)NC12CC3CC(CC(C3)C1)C2						Kp uu at 4 h [4]: 1.2
CC(C)(C)OC(=O)NCCN1CCN(CC(=O)NC23CC4CC(CC(C4)C2)C3)CC1				1.2		
CC(C)(C)S(=O)(=O)CCCN1CCN(CC(=O)NC23CC4CC(CC(C4)C2)C3)CC1				2.4		Kp uu at 4 h [4]: 0.3

More lines, main results first:

IC50 (Cytochrome P450 2D6) [µM]	microsomal CLint [2] [µL/min/mg]	Drug metabolism (Liver microsomes)	IC50 [3] [µM]	SMILES	IC50 [1] [µM]	other results
2.6	15	Active	0.8	CC(C)(C)NC(=O)NCCN1CCC(NC(=O)c2cc(Cl)cc(Cl)c2)C1 (configuration not stated)	6.6	
1.6	16	Not Active	0.5	CC(C)(C)NC(=O)NCCN1CCCC(CNC(=O)c2cc(Cl)cc(Cl)c2)C1 (configuration not stated)		
> 20	100		0.5	CC(C)(C)NC(=O)NCCN1CCN(CC(=O)NC23CC4CC(CC(C4)C2)C3)CC1	> 33	Kp uu at 4 h [4]: 0.02
			1.2	CC(C)(C)NC(=O)NCCCN1CCN(CC(=O)NC23CC4CC(CC(C4)C2)C3)CC1		
3.4	< 5	Not Active	0.5	CC(C)(C)NC(=O)NCCN1CCC(CNC(=O)c2cc(Cl)cc(Cl)c2)CC1	13	
14	6	Active	0.6	CC(C)(C)NC(=O)NCCN1CCC(O)(CNC(=O)c2cc(Cl)cc(Cl)c2)CC1	> 33	
1	< 5	Active	0.4	CC(C)(C)NC(=O)NCCN1CCC(CNC(=O)c2cc(Cl)cc(Cl)c2)C1 (configuration not stated)	5.8	
4.5	4	Active	0.8	CC(C)(C)NC(=O)NCCN1CC(NC(=O)c2cc(Cl)cc(Cl)c2)C1		
8	29		0.3	CC(C)(C)NC(=O)NCCN1CCN(CC(=O)Nc2cc(Cl)cc(Cl)c2)CC1	1.6	
8.3	48	Active	0.5	CC(C)(C)NC(=O)NCCN1CCCC(NC(=O)c2cc(Cl)cc(Cl)c2)C1 (configuration not stated)	4.1	
> 20	47	Active	3.3	CC(C)(C)NC(=O)NCCN1CCOC(CNC(=O)c2cc(Cl)cc(Cl)c2)C1 (configuration not stated)	> 33	
13	7	Not Active	0.6	CC(C)(C)NC(=O)NCCN1CCC(CO)(CNC(=O)c2cc(Cl)cc(Cl)c2)CC1	> 33	IC50 [5]: > 33 µM; IC50 [6]: > 33 µM; clearance [7]: 17 mL/min/kg; IC50 [8]: > 33 µM; solubility [9]: 460 µM (≈ 211 µg/mL); IC50 [10]: > 33 µM; bioavailability [11]: 22%; Activity (Canis familiaris): Dose-dependent effect; IC50 [12]: > 31.6 µM; IC50 [13]: 1.2 µM
